Laboratory results taken from patent US7179825B2, “Retinoic acid mimetic anilides” (Janssen Pharmaceutica N.V., priority 1997, dated 2007).

How the values were obtained:
[1] = test system: metabolism of retinoic acid in human breast cancer cells; assay: Inhibition of retinoic acid (RA) metabolism (Example C.1); format: cell-based; details: MCF-7 human breast cancer cells, 3H-RA as substrate, concentration needed to reduce the amount of metabolites to 50% of the control
How it was run: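 Test compound (in 1% DMSO) added at several concentrations to MCF-7 cell suspensions fed ³H-RA, after RA induction of metabolism one day earlier. Scintillation counting of the separated polar metabolite fraction; IC50 = concentration giving 50% of control metabolite level.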

Ovariectomized rats = assay: Vaginal keratinization test on ovariectomized rats (Example C.2); format: in vivo; details: estradiol undecylate induced keratinization, per os once daily on days 1-3, active dose = 50% of rats show complete suppression
How it was run: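 Value is the lowest oral dose (mg/kg) at which half of tested rats show complete suppression of estradiol undecylate-induced vaginal keratinization by histology. Ovariectomized rats received 100 μg/100 g estradiol undecylate s.c., then compound or PEG 200 vehicle p.o. daily for three days; sacrifice one day later.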

Compound	IC50 [1] [nM]	LAD (lowest active dose) (Ovariectomized rats) [mg/kg]	IC50 ([1]; MCF7) [nM]	minimal effective dose (Ovariectomized rats; Rattus norvegicus, po, read-out: LAD (lowest active dose)) [mg/kg]
CCC(CC)C(c1ccc(NC(=O)Nc2cccc(F)c2)cc1)n1cncn1 (racemic) [Compound 723]	1.13	5.00	–	–
CCC(CC)C(c1ccc(NC(=O)Nc2cccc(F)c2)cc1)n1ccnc1 (racemic) [Compound 724]	1.18	2.50	–	–
CC(C)C(c1ccc(NC(=O)Nc2cccc(F)c2)cc1)n1cncn1 (racemic) [Compound 725]	3.29	5.00	–	–
CC(C)C(c1ccc(NC(=O)Nc2ccccc2F)cc1)n1ccnc1 (racemic) [Compound 726]	3.71	5.00	–	–
CC(C)C(c1ccc(NC(=O)Nc2cccc(N)c2)cc1)n1ccnc1 (racemic) [Compound 727]	1.64	>10.00	–	–
CC(C)C(c1ccc(NC(=O)Nc2cc(F)ccc2F)cc1)n1ccnc1 (racemic) [Compound 728]	1.41	5.00	–	–
O=C(Nc1ccc(C(c2cccc(C(F)(F)F)c2)n2ccnc2)cc1)Nc1cccc(F)c1 (racemic) [Compound 729]	> 100	2.50	–	–
CC(C)C(c1ccc(NC(=O)Nc2cccc(C(F)(F)F)c2)cc1)n1ccnc1 (racemic) [Compound 730]	15.9	>10.00	–	–
CC(C)C(c1ccc(NC(=O)Nc2ccc(Cl)c(Cl)c2)cc1)n1ccnc1 (racemic) [Compound 732]	19.3	>10.00	–	–
COc1cccc(NC(=O)Nc2ccc(C(C(C)C)n3ccnc3)cc2)c1 (racemic) [Compound 733]	2.41	>10.00	–	–
CC(C)C(c1ccc(NC(=O)Nc2ccc(F)cc2F)cc1)n1ccnc1 (racemic) [Compound 734]	2.25	10.00	–	–
O=C(Nc1ccc(C(c2ccccc2)n2ccnc2)cc1)Nc1cccc(F)c1 (racemic) [Compound 735]	> 100	10.00	–	–
Cc1cccc(NC(=O)Nc2ccc(C(C(C)C)n3ccnc3)cc2)c1 (racemic) [Compound 736]	7.45	>10.00	–	–
CC(C)C(c1ccc(NC(=O)Nc2cccc([N+](=O)[O-])c2)cc1)n1ccnc1 (racemic) [Compound 737]	2.36	>10.00	–	–
CC(C)C(c1ccc(NC(=O)Nc2cccc(Cl)c2)cc1)n1ccnc1 (racemic) [Compound 738]	2.03	10.00	–	–
CC(C)C(c1ccc(NC(=O)Nc2ccc(Cl)cc2)cc1)n1ccnc1 (racemic) [Compound 739]	42.1	>10.00	–	–
CC(C)C(c1ccc(NC(=O)Nc2ccc(F)cc2)cc1)n1ccnc1 (racemic) [Compound 740, (±)-N-(4-fluorophenyl)-N′-[4-[1-(1H-imidazol-1-yl)-2-methylpropyl]phenyl]urea]	–	–	1.29	20
CC(C)C(c1ccc(NC(=O)Nc2cccc(F)c2)cc1)n1ccnc1 (racemic) [Compound 741]	1.44	10.00	–	–
CC(C)C(c1ccc(NC(=O)Nc2ccccc2)cc1)n1ccnc1 (racemic) [Compound 742]	0.261	10.00	–	–

Compound	IC50 [1] [nM]	LAD (lowest active dose) (Ovariectomized rats) [mg/kg]	IC50 ([1]; MCF7) [nM]	minimal effective dose (Ovariectomized rats; Rattus norvegicus, po, read-out: LAD (lowest active dose)) [mg/kg]
CCCCC(c1ccc(NC(=O)/C(C)=C/c2ccccc2)cc1)(C(C)C)n1ccnc1 (racemic) [Compound 761]	> 100	>5.00	–	–
CCC(CC)C(O)(c1ccc(NC(C)=O)cc1)c1cncn1C (racemic) [Compound 772]	0.146	>5.00	–	–
CCC(CC)C(c1ccc(NC(=O)C(O)c2ccc(Cl)cc2)cc1)n1cncn1 (single isomer, unassigned) [Compound 21]	2.89	5.00	–	–
CCOc1ccc(CCC(=O)Nc2ccc(C(C(CC)CC)n3ccnc3)cc2)cc1 (single isomer, unassigned) [Compound 61]	0.734	2.50	–	–
CCC(CC)C(c1ccc(NC(=O)Cc2ccc(OC)c(C)c2)cc1)n1cncn1 (single isomer, unassigned) [Compound 85]	3.92	2.50	–	–
CCC(CC)C(c1ccc(NC(=O)Cc2ccc(OC)c(C)c2)cc1)n1cncn1 (single isomer, unassigned) [Compound 86]	0.497	2.50	–	–
COc1ccc(CC(=O)Nc2ccc(C(C(C)N(C)C)n3cncn3)cc2)cc1Cl (single isomer, unassigned) [Compound 288]	1.28	>2.50	–	–
CC(C(c1ccc(NC(=O)Cc2ccc(O)c(Cl)c2)cc1)n1cncn1)N(C)C (single isomer, unassigned) [Compound 289]	0.507	>2.50	–	–
Cc1cc(CC(=O)Nc2ccc(C(C(C)N(C)C)n3cncn3)cc2)cc(C)c1C (single isomer, unassigned) [Compound 290]	1.14	2.50	–	–
Cc1cc(CC(=O)Nc2ccc(C(C(C)N(C)C)n3cncn3)cc2)cc(C)c1C (single isomer, unassigned) [Compound 291]	4.23	>2.50	–	–
COc1cc(CC(=O)Nc2ccc(C(C(C)N(C)C)n3cncn3)cc2)cc(OC)c1OC (single isomer, unassigned) [Compound 292]	0.137	>2.50	–	–
CCOc1ccc(CC(=O)Nc2ccc(C(C(C)N(C)C)n3cncn3)cc2)cc1OCC (single isomer, unassigned) [Compound 293]	6.53	>2.50	–	–
COc1cc(CC(=O)Nc2ccc(C(C(C)N(C)C)n3cncn3)cc2)ccc1Cl (single isomer, unassigned) [Compound 297]	0.786	>2.50	–	–
CCOc1ccc(CC(=O)Nc2ccc(C(C(C)N(C)C)n3ccnc3)cc2)cc1OCC (single isomer, unassigned) [Compound 301]	6.05	>2.50	–	–
Cc1ccc(CC(=O)Nc2ccc(C(C(C)N(C)C)n3ccnc3)cc2)cc1C (single isomer, unassigned) [Compound 306]	1.26	>2.50	–	–
CC(C(c1ccc(NC(=O)Cc2ccc(O)c(Cl)c2)cc1)n1ccnc1)N(C)C (single isomer, unassigned) [Compound 307]	0.701	>2.50	–	–
Cc1cc(CC(=O)Nc2ccc(C(C(C)N(C)C)n3ccnc3)cc2)cc(C)c1C (single isomer, unassigned) [Compound 309]	3.65	>2.50	–	–
COc1cc(CC(=O)Nc2ccc(C(C(C)N(C)C)n3ccnc3)cc2)ccc1Cl (single isomer, unassigned) [Compound 311]	0.664	2.50	–	–
COc1ccc(CC(=O)Nc2ccc(C(C(C)N(C)C)n3ccnc3)cc2)cc1C (single isomer, unassigned) [Compound 313]	0.02	2.50	–	–
